Data on one compound can be found in PMC5722316, “Synthesis of novel purpurealidin analogs and evaluation of their effect on the cancer-relevant potassium channel KV10.1” (PLoS ONE, 2017).

Series [1] concerns SH-SY5Y, DU145, LNCaP, NIH-3T3, MDA-MB-435S and hTERT RPE-1 cell lines. Description: Incucyte Caspase-3/7 apoptosis assay. It counts as cell-based. To be noted: 100 μM, 50 μM and 20 μM; all the cell lines. The method, then:
(§1) Cell lines SH-SY5Y (ACC 209), DU145 (ACC 261), LNCaP (ACC 256) and NIH-3T3 (ACC 59) were purchased from DSMZ (Germany). MDA-MB-435S (HTB 129) and hTERT RPE-1 (CRL 4000) were obtained from ATCC (USA). Cell lines were cultured in their recommended media Supplemented with 10% or 15% FCS (PAA laboratories, Germany) at 37°C in humidified 5% CO2 atmosphere. All media were purchased from ThermoFisher Scientific (Waltham, Massachusetts, United States).
(§2) Cell proliferation, cytotoxicity and apoptosis were assessed in a 96-well microtiter plate by live-cell imaging using an IncuCyte Zoom System (Essen BioScience, UK). Cell proliferation was monitored in terms of cell confluency (%). Cell cytotoxicity was assessed by the CellTox Green Dye assay (Promega, Madison, Wisconsin, USA). The Incucyte Caspase-3/7 apoptosis assay (Essen BioScience, UK) was used to evaluate the effect of compound 5 on the apoptotic pathway. As negative controls media supplemented with 0.05% of DMSO were used.
Live-cell imaging data were collected from the IncuCyte Zoom software and analyzed using GraphPad Prism 5 software. Proliferation was measured as Phase Object Confluence (%), cytotoxicity and apoptosis were measured as Green Object Count (1/mm^2). All data are represented as mean S.E.M of n = 6 different wells. […]

The next series concerns SH-SY5Y. Description: Proliferation assay (IncuCyte live-cell imaging, cell confluency). In kind it is cell-based. To be noted: Homo sapiens, indicative, from AUC vs concentration (2-100 μM), read-out: Antiproliferative effect (IC50). The method, then:
as §1, §2
(§3) Live-cell imaging data were collected from the IncuCyte Zoom software and analyzed using GraphPad Prism 5 software. Proliferation was measured as Phase Object Confluence (%), cytotoxicity and apoptosis were measured as Green Object Count (1/mm^2). All data are represented as mean S.E.M of n = 6 different wells.
(§4) The following concentrations of compound 5 were added to the different cell lines, 100 μM, 50 μM, 20 μM, 10 μM, 5 μM and 2 μM to assess its effect on cell proliferation (S1 Fig) and cytotoxicity (S2 Fig). Indicative IC50-values for the proliferation assays were obtained by plotting the areas under the curve (AUC × 10^3) against the tested compound 5 concentrations and by fitting the curve with a logistic dose-response equation. The EC50-values for the cytotoxicity assays were calculated correspondingly (S3 Fig). Although more data points would be necessary to calculate precise IC50 and EC50-values, it is clear that compound 5 inhibits the proliferation and induces cytotoxicity in all the tested cell lines in the low to middle micromolar range.

The subject of the next series is MDA-MB-435S. Described as above. It counts as cell-based. Particulars: Homo sapiens, indicative, from AUC vs concentration (2-100 μM), read-out: Antiproliferative effect (IC50). The method, then:
as §1, §2, §3, §4

In the next series the test system is LNCAP. The description is as above. It counts as cell-based. To be noted: Homo sapiens, indicative, from AUC vs concentration (2-100 μM), read-out: Antiproliferative effect (IC50). The method, then:
as §1, §2, §3, §4

The next series has as its system NIH-3T3. Described as above. In kind it is cell-based. To be noted: Mus musculus, NIH3T3, indicative, from AUC vs concentration (2-100 μM), read-out: Antiproliferative effect (IC50). The method, then:
as §1, §2, §3, §4

In a further series the test system is DU145. The description is as above. Particulars: Homo sapiens, DU-145, indicative, from AUC vs concentration (2-100 μM), read-out: Antiproliferative effect (IC50). It counts as cell-based. The method, then: as §1, §2, §3, §4
The next series relates to hTERT RPE-1. The description is as above. In kind it is cell-based. Particulars: Homo sapiens, hTERT-RPE1, indicative, from AUC vs concentration (2-100 μM), read-out: Antiproliferative effect (IC50). The method, then:
as §1, §2, §3, §4

In the next series the target is T1, hKV10.1a (Homo sapiens, UniProt O95259).
T1 construct: expressed in transfected cells; host or cells: Xenopus laevis oocytes injected with cRNA transcribed from the hKV10.1a-pSGEM plasmid
T1 sequence (O95259 1-962 isoform O95259-2): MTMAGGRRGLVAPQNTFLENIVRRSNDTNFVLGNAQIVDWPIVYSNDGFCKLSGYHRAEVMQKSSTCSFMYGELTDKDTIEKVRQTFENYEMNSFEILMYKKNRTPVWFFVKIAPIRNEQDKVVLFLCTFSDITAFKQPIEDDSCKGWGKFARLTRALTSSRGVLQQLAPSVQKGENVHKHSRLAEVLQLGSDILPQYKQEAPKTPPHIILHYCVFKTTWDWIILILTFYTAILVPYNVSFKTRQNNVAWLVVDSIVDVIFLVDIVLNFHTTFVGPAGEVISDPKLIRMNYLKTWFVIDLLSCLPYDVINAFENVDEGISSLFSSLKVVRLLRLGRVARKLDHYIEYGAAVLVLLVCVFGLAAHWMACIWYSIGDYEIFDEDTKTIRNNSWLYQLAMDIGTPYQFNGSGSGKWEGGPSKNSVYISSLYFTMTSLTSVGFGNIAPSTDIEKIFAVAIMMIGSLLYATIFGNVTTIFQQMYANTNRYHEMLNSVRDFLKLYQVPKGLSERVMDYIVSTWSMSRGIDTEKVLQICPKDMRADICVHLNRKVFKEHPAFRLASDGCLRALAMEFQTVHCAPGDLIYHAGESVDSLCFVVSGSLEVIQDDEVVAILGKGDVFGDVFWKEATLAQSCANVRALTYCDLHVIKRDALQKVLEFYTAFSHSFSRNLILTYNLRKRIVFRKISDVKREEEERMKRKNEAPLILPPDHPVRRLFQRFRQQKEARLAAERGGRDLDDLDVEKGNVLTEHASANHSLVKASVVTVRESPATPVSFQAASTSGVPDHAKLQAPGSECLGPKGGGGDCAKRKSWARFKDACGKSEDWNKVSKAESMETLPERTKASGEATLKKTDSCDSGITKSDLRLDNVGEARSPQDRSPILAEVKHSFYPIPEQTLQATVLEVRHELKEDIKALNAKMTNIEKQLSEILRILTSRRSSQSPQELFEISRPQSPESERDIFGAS
As to the kind of experiment: Two-electrode voltage-clamp recordings of KV10.1 currents in Xenopus laevis oocytes. It counts as cell-based.

Series [2] can be described thus: Cytotoxicity assay (CellTox Green Dye, IncuCyte). In kind it is cell-based. Particulars: indicative, from AUC vs concentration (2-100 μM), read-out: Cytotoxic effect (EC50). The method, then:
as §1, §2, §3, §4

Each structure is given as a SMILES string. pEC50, pIC50: −log10 of the molar value. Like-named read-outs stand apart in the source and are kept apart here.

As usually defined, the pIC50 is the IC50 on a negative log10 scale, so that one unit is a factor of ten. One may read the melting point as the temperature of the solid-liquid transition. The term pEC50 denotes the EC50 on a negative log10 scale, so that one unit is a factor of ten. The compound `COc1ccc(C(=O)NCCc2cc(Br)c(OCCCN(C)C)c(Br)c2)cc1Cl` [Compound 5, 3-Chloro-N-[3,5-dibromo-4-[3-(dimethylamino)propoxy]phenethyl]-4-methoxybenzamide] registered a melting point of 79 to 81 °C. In [1], the “caspase-3/7 activity (induction of the apoptotic pathway)” value is listed as “caspase-3/7 activity was detected”. The pIC50 in the series on SH-SY5Y was 4.91. Besides, the pIC50 in the series on MDA-MB-435S was 4.55. For the same compound, the pIC50 in the series on LNCAP was 4.58. The pIC50 in the series on NIH-3T3 is 5.15. Besides, the pIC50 in the series on DU145 was 4.54. Besides, the negative-log IC50 (pIC50) in the series with hTERT RPE-1 was 4.90. In addition, the “time constant (τ) of current decrease on open channels” value on hKV10.1a (10 μM added during 20-s continuous step to 30 mV, no P/4 leak subtraction) is listed as ~ 1.4 s. The “shift of activation curve (ΔV1/2) to more negative potentials” value at hKV10.1a (10 μM, HK solution ([K+]e = 96 mM), Boltzmann fit) was 14.8 ± 2.1 mV. Further, on hKV10.1a (10 μM, HK solution ([K+]e = 96 mM), control V1/2 = 39.3 ± 1.7 mV), the “half-maximal voltage of activation (V1/2) in presence of compound” value is listed as 24.5 ± 1.3 mV. Moreover, the “slope factor k of activation curve in presence of compound” value on hKV10.1a (10 μM, HK solution, control k = 15.7 ± 0.9) stood at 14.5± 1.0. Moreover, the pEC50 in series [2] (human, DU145 cells) was 4.22. For the same compound, the pEC50 in series [2] (human, LNCaP cells) was 4.39. Besides, the pEC50 in series [2] (human, MDA-MB-435S cells) was 4.78. Also, in series [2] (human, SH-SY5Y cells), the pEC50 was 4.82. Besides, the pEC50 in series [2] (human, hTERT RPE-1 cells) was 4.81. In addition, the negative logarithm of the EC50 (pEC50) in series [2] (mouse, NIH-3T3 cells) was 5.34.
